Reference: US9962326B2, “Compositions comprising paulownia tomentosa wood extracts and uses thereof” (JOHNSON & JOHNSON CONSUMER INC., priority 2010, dated 2018)

System: UV-induced ROS, primary human keratinocytes
Experiment: Inhibition of Reactive Oxygen Species Formation in primary human keratinocytes
Format: cell-based
Details: for Reactive Oxygen Species Produced (MFU): 60 minutes post UV
Experimental: The anti-oxidant activity of Paulownin was established via the Inhibition of Reactive Oxygen Species Formation assay described above. In this study primary human keratinocytes were substituted for human epithelial (KB) cells. The keratinocytes were plated in 96-well tissue culture treated plates at a density of 5000 cells/well in Dulbecco's modified Eagle's medium (DMEM) supplemented with 10% fetal bovine serum (Invitrogen Corp., San Diego, Calif.). After 48 hours, cells were incubated for 30 minutes with 5 μM of the hydrogen peroxide-sensitive fluorescent probe 5-(and-6)-chloromethyl-2′,7′-dichlorodihydro-fluorescein diacetate, acetyl ester (CM-H2DCFDA) (Invitrogen Corp., Carlsbad, Calif.). After incubation, the plate was rinsed to remove excess probe and Paulownin was added at the indicated concentrations. The plate was immediately read on a fluorescent plate reader set at wavelengths 485 nm excitation/530 nm emission to detect basal peroxide formation. The plate was then exposed to UV (1000W-Oriel solar simulator equipped with a 1 mm Schott WG 320 filter; UV dose applied 4.2 kJ/m^2 as measured at 360 nm). The plate was read 60 minutes post UV exposure and the data reported as mean fluorescent units (MFU).

## OC12COC(c3ccc4c(c3)OCO4)C1COC2c1ccc2c(c1)OCO2 (stereo not shown) [Paulownin]
  UV-induced production of ROS (in words): significantly reduce
UV + 50 ug/ml
  Percent Inhibition of UV Induced ROS Formation: 65.3%
  Reactive Oxygen Species Produced (MFU): 46.3 ± 6.9 MFU
UV + 100 ug/ml
  Percent Inhibition of UV Induced ROS Formation: 69.5%
  Reactive Oxygen Species Produced (MFU): 40.5 ± 6.1 MFU
UV + 200 ug/ml
  Percent Inhibition of UV Induced ROS Formation: 72.1%
  Reactive Oxygen Species Produced (MFU): 37.2 ± 3.4 MFU
